Among the data in patent US20230192617A1, “AZABICYCLIC(THIO)AMIDES AS FUNGICIDAL COMPOUNDS” (Bayer CropScience Aktiengesellschaft, priority 2020, published 2023) are chromatographic logP values, retold here.

Molecules are shown by their SMILES.

One data set is described as follows: Measurement of Log P values by HPLC on reversed phase columns (EEC directive 79/831 Annex V.A8). It is filed as physicochemical. The settings on record: method [a]: LC-UV, acidic range, 0.1% formic acid in water and acetonitrile as eluent. The protocol: A-1.1. Measurement of Log P Values
Measurement of Log P values as provided herein was performed according to EEC directive 79/831 Annex V.A8 by HPLC (High Performance Liquid Chromatography) on reversed phase columns with the following methods:
^[a] Log P value is determined by measurement of LC-UV, in an acidic range, with 0.1% formic acid in water and acetonitrile as eluent (linear gradient from 10% acetonitrile to 95% acetonitrile).
^[b] Log P value is determined by measurement of LC-UV, in a neutral range, with 0.001 molar ammonium acetate solution in water and acetonitrile as eluent (linear gradient from 10% acetonitrile to 95% acetonitrile).
^[c] Log P value is determined by measurement of LC-UV, in an acidic range, with 0.1% phosphoric acid and acetonitrile as eluent (linear gradient from 10% acetonitrile to 95% acetonitrile).
If more than one Log P value is available within the same method, all the values are given and separated by “+”. […]
One may read the chromatographic logP as a lipophilicity value derived from retention on a column. Low values mean a more hydrophilic compound, high ones a more lipophilic compound. As for `O=C(O)c1c(Oc2cccc(Br)c2F)cnc2ccccc12` [1-39], the chromatographic logP was found to be 2.59.

In the case of `O=C(O)c1c(Oc2cccc(C(F)(F)F)c2)cnc2ccccc12` [1-07, 3-(3-(trifluoromethyl)phenoxy)quinoline-4-carboxylic acid], the chromatographic logP stood at 2.57.

In turn, `O=C(O)c1c(Oc2cccc(C(F)(F)F)c2)cnc2ccoc12` [1-15, 6-[3-(trifluoromethyl)phenoxy]furo[3,2-b]pyridine-7-carboxylic acid] returned a chromatographic logP of 2.08.

On to `CCOC(=O)c1c(Oc2cccc(C(F)F)c2)nnc2c1CCCC2` [1-23], for which the chromatographic logP was 3.37.

`COC(=O)c1c(Oc2cccc(C(F)(F)F)c2)cnc2ccccc12` [1-13, methyl 3-(3-(trifluoromethyl)phenoxy)quinoline-4-carboxylate]: the chromatographic logP stood at 3.8.

In turn, `O=C(O)c1c(Oc2cccc(Cl)c2F)nnc2c1CCCC2` [1-29, 3-(3-chloro-2-fluoro-phenoxy)-5,6,7,8-tetrahydrocinnoline-4-carboxylic acid] gave a chromatographic logP of 1.46.

For the compound `CCOC(=O)c1c(Oc2cccc(C(F)(F)F)c2)nnc2c1CCCC2` [1-22], the chromatographic logP worked out at 3.9.

`O=C(O)c1c(Oc2cccc(C(F)F)c2)nnc2ccccc12` [1-11] displayed a chromatographic logP of 1.87.

With `O=C(O)c1c(Oc2cccc(Cl)c2)nnc2ccccc12` [1-03], the chromatographic logP worked out at 2.07.

As for `O=C(O)c1c(Oc2cccc(C(F)F)c2)nnc2c1CCCC2` [1-32], the chromatographic logP came to 1.18.

Compound `O=C(O)c1c(Oc2cccc(Br)c2F)nnc2c1CCCC2` [1-27] displayed a chromatographic logP of 1.55.

The compound `C#Cc1cccc(Oc2cnc3ccccc3c2C(=O)O)c1` [1-49] showed a chromatographic logP of 2.2.

`CCOC(=O)c1c(Oc2cccc(Cl)c2F)nnc2c1CCCC2` [1-26, ethyl 3-(3-chloro-2-fluoro-phenoxy)-5,6,7,8-tetrahydrocinnoline-4-carboxylate]: the chromatographic logP stood at 3.76.

`O=C(O)c1c(Oc2cccc(C(F)F)c2)cnc2ccccc12` [1-41] returned a chromatographic logP of 2.1.

For the compound `C=Cc1cccc(Oc2cnc3ccccc3c2C(=O)O)c1` [1-50], the chromatographic logP was 2.41.

With `Cc1cccc(Oc2nnc3ccccc3c2C(=O)O)c1` [1-04], the chromatographic logP was found to be 1.92.

As for `O=C(O)c1c(Oc2cccc(C(F)(F)F)c2)nnc2c1CCCC2` [1-31], the chromatographic logP turned out to be 1.6.

As to `CC(C)OC(=O)c1c(Oc2cccc(Cl)c2)nnc2ccccc12` [1-14], the chromatographic logP amounted to 4.19.

On to `O=C(O)c1c(Oc2cccc(C3CC3)c2F)cnc2ccccc12` [1-51], for which the chromatographic logP turned out to be 2.71.

Turning to `COC(=O)c1c(Oc2cccc(C(F)(F)F)c2)nnc2ccccc12` [1-02], the chromatographic logP is 3.62.

The compound `O=C(O)c1c(Oc2cccc(C3CC3)c2F)nnc2ccccc12` [1-18, 3-(3-cyclopropyl-2-fluoro-phenoxy)cinnoline-4-carboxylic acid] returned a chromatographic logP of 2.23.

With `COC(=O)c1c(Oc2cccc(C(F)F)c2)nnc2ccccc12` [1-09], the chromatographic logP amounted to 3.06.

Compound `O=C(O)c1c(Oc2cccc(C(F)(F)F)c2)nnc2ccccc12` [1-01] showed a chromatographic logP of 2.27.

With `CCOC(=O)c1c(Oc2cccc(Br)c2F)nnc2c1CCCC2` [1-21], the chromatographic logP was found to be 3.85.

Still in this data set, the particulars now being: method [b]: LC-UV, neutral range, 0.001 molar ammonium acetate solution in water and acetonitrile as eluent.
On to `CCOC(=O)c1c(Oc2cccc(C(F)F)c2)nnc2c1CCCC2` [1-23], for which the chromatographic logP came to 3.19.

`O=C(O)c1c(Oc2cccc(Cl)c2F)nnc2c1CCCC2` [1-29, 3-(3-chloro-2-fluoro-phenoxy)-5,6,7,8-tetrahydrocinnoline-4-carboxylic acid] showed a chromatographic logP of 0.42.

As to `O=C(O)c1c(Oc2cccc(Br)c2F)nnc2c1CCCC2` [1-27], the chromatographic logP was 0.45.

Compound `CCOC(=O)c1c(Oc2cccc(Cl)c2F)nnc2c1CCCC2` [1-26, ethyl 3-(3-chloro-2-fluoro-phenoxy)-5,6,7,8-tetrahydrocinnoline-4-carboxylate] displayed a chromatographic logP of 3.56.

The compound `O=C(O)c1c(Oc2cccc(C(F)(F)F)c2)nnc2c1CCCC2` [1-31] gave a chromatographic logP of 0.55.

The same data set, now with this note: reversed phase HPLC column, method [a]: LC-UV, acidic range, 0.1% formic acid in water and acetonitrile as eluent.
In turn, `CC1(C)CCc2c1nnc(Oc1cccc(C(F)(F)F)c1)c2C(=O)O` [1-46] came in with a chromatographic logP of 2.49.

Consider `CCOC(=O)c1c(Oc2cccc(C(F)(F)F)c2)nnc2c1CCC2(C)C` [1-44], for which the chromatographic logP was found to be 4.4.

In the case of `Cc1ccc(C(F)(F)CNC(=O)c2c(Br)cnc3nccnc23)c(C)c1` [3-01], the chromatographic logP stood at 2.56.

Take `CCOC(=O)c1c(Oc2cccc(C(F)(F)F)c2)nnc2cc(C3CC3)ccc12` [1-53]: the chromatographic logP was found to be 4.81.

For `CCOC(=O)c1c(Oc2cccc(C(F)(F)F)c2)nnc2cnccc12` [1-54], the chromatographic logP came out at 3.51.

Compound `O=C(O)c1c(Oc2cccc(C(F)(F)F)c2)nnc2ccsc12` [1-57] returned a chromatographic logP of 2.39.

As to `O=C(O)c1c(Oc2cccc(Br)c2F)nnc2ccccc12` [1-35], the chromatographic logP worked out at 2.43. This chromatographic logP and that of the compound before are within 0.2 log units of each other.

Regarding `CCOC(=O)c1c(Oc2cccc(C(F)(F)F)c2)nnc2ccccc12` [1-42], the chromatographic logP amounted to 3.95.

With `O=C(O)c1c(Oc2cccc(Br)c2)cnc2ccccc12` [1-47], the chromatographic logP is 2.48.

Regarding `CCOC(=O)c1c(Oc2cccc(C(F)(F)F)c2)nnc2cc(C)ccc12` [1-52], the chromatographic logP is 4.38.

Consider `O=C(O)c1c(Oc2cccc(C(F)(F)F)c2)nnc2c1OCCO2` [1-17, 3-[3-(trifluoromethyl)phenoxy]-6,7-dihydro-[1,4]dioxino[2,3-c]pyridazine-4-carboxylic acid], for which the chromatographic logP turned out to be 1.31.

Turning to `O=C(O)c1c(Oc2cccc(C3CC3)c2)cnc2ccccc12` [1-45], the chromatographic logP came out at 2.59.

For `N#Cc1cccc(Oc2nnc3ccccc3c2C(=O)O)c1` [1-10], the chromatographic logP came out at 1.56.

As for `COC(=O)c1c(Oc2cccc(C#N)c2)nnc2ccccc12` [1-08], the chromatographic logP stood at 2.64.

`O=C(O)c1c(Oc2cccc(C(F)(F)F)c2)nnc2cnccc12` [1-05] gave a chromatographic logP of 2.04.

Consider `CCOC(=O)c1c(Oc2cccc(Cl)c2F)nnc2c1CCC2` [1-40], for which the chromatographic logP is 3.37.

Turning to `O=C(O)c1c(Oc2cccc(C(F)(F)F)c2)nnc2cc(C3CC3)ccc12` [1-34], the chromatographic logP was found to be 3.21.

`O=C(O)c1c(Oc2cccc(Br)c2)nnc2ccccc12` [1-48] yielded a chromatographic logP of 2.2.

With `O=C(O)c1c(Oc2cccc(C3CC3)c2)nnc2ccccc12` [1-36], the chromatographic logP turned out to be 2.36.

As for `Cc1cccc(Oc2cnc3ccccc3c2C(=O)O)c1` [1-43], the chromatographic logP turned out to be 2.18.

In turn, `CCOC(=O)c1c(Oc2cccc(Cl)c2)nnc2c1CCCC2` [1-24] registered a chromatographic logP of 3.72.

Compound `CC1(C)COc2nnc(Oc3cccc(C(F)(F)F)c3)c(C(=O)O)c2OC1` [1-20] displayed a chromatographic logP of 2.02.

In the case of `CCON(Cc1ccccc1)C(=O)c1c(Oc2cccc(C(F)(F)F)c2)nnc2ccccc12` [I-247], the chromatographic logP was 4.24.

Compound `Cc1ccc(C(F)(F)CNC(=O)c2c(Oc3ccc(Cl)cc3)nnc3ccccc23)c(C)c1` [I-200] came in with a chromatographic logP of 4.23.

Regarding `CCOC(=O)c1c(Oc2cccc(Br)c2F)nnc2ccccc12` [1-37], the chromatographic logP was 4.02.

For the compound `O=C(N/C=C/c1ccccc1)c1c(Oc2cccc(C(F)(F)F)c2)cnc2ccccc12` [I-217], the chromatographic logP was 3.92. This chromatographic logP and that of the compound before are within 0.2 log units of each other.

On to `O=C(O)c1c(Oc2cccc(Cl)c2)nnc2c1CCCC2` [1-28], for which the chromatographic logP was found to be 1.28.

On to `C[C@H](NC(=O)c1c(Oc2ccc(Cl)cc2)nnc2ccccc12)c1cccc(C(F)(F)F)c1` (racemic) [I-204], for which the chromatographic logP was determined as 3.92.

`Cc1ccc(C(F)(F)CNC(=O)c2c(Cl)nnc3ccccc23)c(C)c1` [3-02] registered a chromatographic logP of 3.23.

With `O=C(O)c1c(Oc2ccc(Cl)cc2)nnc2ccccc12` [1-16], the chromatographic logP was found to be 2.12.

`Cc1ccc2c(C(=O)O)c(Oc3cccc(C(F)(F)F)c3)nnc2c1` [1-12, 7-methyl-3-(3-(trifluoromethyl)phenoxy)cinnoline-4-carboxylic acid] gave a chromatographic logP of 2.74.

In the case of `O=C(O)c1c(Oc2cccc(C3CC3)c2F)nnc2c1CCCC2` [1-30], the chromatographic logP was 1.72.

Compound `CC1(C)COc2c(nnc(Oc3cccc(C(F)(F)F)c3)c2C(=O)O)O1` [1-19] showed a chromatographic logP of 1.82. This chromatographic logP and that of the compound before are within 0.2 log units of each other.

For `CCOC(=O)c1c(Oc2cccc(C(F)(F)F)c2)nnc2cc(F)ccc12` [1-58], the chromatographic logP came to 4.16.

In the case of `O=C(O)c1c(Oc2cncc(C(F)(F)F)c2)nnc2ccccc12` [1-06], the chromatographic logP is 1.83.

`COC(=O)c1c(Oc2cccc(C(F)(F)F)c2)nnc2ccsc12` [1-55] yielded a chromatographic logP of 3.34.

In the case of `CCOC(=O)c1c(Oc2cccc(C3CC3)c2F)nnc2c1CCCC2` [1-25], the chromatographic logP was 3.79.

Consider `O=C(O)c1c(Oc2cccc(C(F)(F)F)c2)nnc2cc(F)ccc12` [1-38], for which the chromatographic logP was determined as 2.62.

In the case of `O=C(O)c1c(Oc2cccc(Cl)c2F)nnc2c1CCC2` [1-56], the chromatographic logP is 1.53.

As for `CON(CCc1ccc(Cl)cc1Cl)C(=O)c1c(Oc2cccc(C(F)(F)F)c2)nnc2ccccc12` [I-190], the chromatographic logP amounted to 5.03.

Compound `O=C(O)c1c(Oc2cccc(C(F)(F)F)c2)nnc2c1COCC2` [1-33] had a chromatographic logP of 1.38.

Staying with this data set, now noted: reversed phase HPLC column, method [b]: LC-UV, neutral range, 0.001 molar ammonium acetate solution in water and acetonitrile as eluent.
`O=C(O)c1c(Oc2cccc(C3CC3)c2F)nnc2c1CCCC2` [1-30] displayed a chromatographic logP of 0.6.
